Experimental data taken from patent publication US11919902B2, “Aryl-bipyridine amine derivatives as phosphatidylinositol phosphate kinase inhibitors” (HiberCell, Inc., priority 2017, dated 2024).

Assays:
GST tagged PIP4KtypeIIB = molecular target: T1, GST tagged PIP4KtypeIIB (Homo sapiens, UniProt P78356); experiment: Trans-FI P kinase assay PIP4K2B (PIP4KtypeIIB inhibition assay); type: biochemical; settings: Table 4; compounds listed under IC50 range headings; 100 uM GTP, 5 nM PIP4KIIB; read-out: Trans-FI P kinase assays: PIP4K2B IC50
T1 construct: made in house; host or cells: E. coli
T1 sequence (P78356 1-416): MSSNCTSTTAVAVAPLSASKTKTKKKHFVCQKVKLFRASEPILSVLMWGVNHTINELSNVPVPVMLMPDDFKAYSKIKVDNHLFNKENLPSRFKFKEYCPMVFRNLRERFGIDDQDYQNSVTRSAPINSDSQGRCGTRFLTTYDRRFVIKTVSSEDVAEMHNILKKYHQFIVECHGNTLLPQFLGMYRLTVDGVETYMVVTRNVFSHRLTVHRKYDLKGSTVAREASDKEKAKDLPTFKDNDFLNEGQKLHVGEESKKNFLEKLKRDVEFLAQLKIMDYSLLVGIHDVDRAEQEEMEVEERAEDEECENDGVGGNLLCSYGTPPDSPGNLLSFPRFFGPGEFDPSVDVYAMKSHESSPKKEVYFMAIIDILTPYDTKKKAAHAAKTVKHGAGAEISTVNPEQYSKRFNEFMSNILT
Excerpt: GST tagged PIP4KtypeIIA and B enzymes were overexpressed in E. Coli and purified to >80% homogeneity. Phosphatidyl inositol-5-phosphate (PI5P, Cat. #850152, Avanti Polar Lipids Inc.) was used as the lipid substrate and phosphatidyl ethanolamine (DOPE 18:1, Cat. #850725, Avanti Polar Lipids Inc.) was used as the carrier lipid for assays. Ultrapure ATP and GTP was purchased from Bellbrooke Labs. ADP Glo reagents were obtained from Promega. Transcreener FI reagent was obtained from Bellbrooke labs.
1. HEPES buffer mix: 200 mM HEPES pH 7.4, 50 mM MgCl2, 0.05% v/v triton×100
2. HNE buffer: 20 mM HEPES, pH 7.4, 100 mM NaCl, 0.5 mM EGTA
3. H:E buffer: 30 mM HEPES, pH 7.4, 1 mM EGTA
GST-tagged PIP4KtypeIIB (3.4 uL, 2.77 mg/mL) was diluted to 5 mL using HNE buffer to yield 5× enzyme stock (25 nM)
Lipid Preparation: In a 10 mL pyrex glass vial, lug of PI5P and lug of DOPE were suspended in 2.5 mL of HEPES buffer mix and 2.5 mL of H:E buffer. The contents were mixed and sonicated for 3 min to yield a translucent lipid stock.
Compound Preparation: Compounds were stored as 5 mM stocks in neat DMSO as room temperature in glass vials. 5 mM stocks were diluted to 2 mM and then serially diluted (3×) in neat DMSO in 96 well polypropylene plates. From the serially diluted stocks, 3 uL was delivered into 250 uL of 25% DMSO (in water) to generate 5× compound stocks. Typically, the highest compound conc. was 24 uM.
The assay volume was kept at 25 uL. To each well of the reaction plate, 10 uL of lipid stock (1:1 ratio PI5P:DOPE) was delivered. This was followed by the addition of 5 uL of compound in 25% DMSO. Then, to each well, 5 uL of 25 nM (5×) typeIIB enzyme was delivered. The contents were mixed well and incubated for 1 h at 27 C. After 1 h, reaction was initiated by adding 5 uL of 500 uM GTP and the contents were mixed well with a multi-channel pipetteman. The final concentration of the reagents are as follows: 50 mM HEPES, pH 7.3, 10 mM MgCl2, 20 mM NaCl, 0.01% v/v triton-X100, 5% DMSO, 100 uM GTP, 80 uM (2 ug) PI5P, 2 ug DOPE, and 5 nM PIP4KIIB Typically, the highest conc. of compounds was 4.8 uM and the lowest conc. was 0.
After 2 h, the reaction was quenched by adding 25 uL of transcreener FI reagent. The contents were incubated at RT for 1 h and the Fluorescence (Ex: 584 Em: 623) was read using Molecular Devices Paradigm plate reader. […] The blanks were averaged and subtracted from all other wells. Using a calibration curve, RFU was converted to uM GDP (product). IC50 was calculated by plotting the residual activity (expressed as % No inhibitor control) vs. log [Inh. conc.] Table 2 represents PI5P4K activity of compounds (Example No.) of the invention arranged in accordance with the inhibition of PIP4K2 A kinase assay.

[1] = molecular target: T2, PIP4K2A (full length protein, SignalChem) (Homo sapiens, UniProt P48426); experiment: Kinase Assay PIP4K2 A (Sprint); ADP-Glo biochemical assay; settings: Table 2; compounds listed under IC50 range headings
T2 construct: 4 nM PIP4K2A (full length protein, SignalChem); purchased SignalChem
T2 sequence (P48426 1-406): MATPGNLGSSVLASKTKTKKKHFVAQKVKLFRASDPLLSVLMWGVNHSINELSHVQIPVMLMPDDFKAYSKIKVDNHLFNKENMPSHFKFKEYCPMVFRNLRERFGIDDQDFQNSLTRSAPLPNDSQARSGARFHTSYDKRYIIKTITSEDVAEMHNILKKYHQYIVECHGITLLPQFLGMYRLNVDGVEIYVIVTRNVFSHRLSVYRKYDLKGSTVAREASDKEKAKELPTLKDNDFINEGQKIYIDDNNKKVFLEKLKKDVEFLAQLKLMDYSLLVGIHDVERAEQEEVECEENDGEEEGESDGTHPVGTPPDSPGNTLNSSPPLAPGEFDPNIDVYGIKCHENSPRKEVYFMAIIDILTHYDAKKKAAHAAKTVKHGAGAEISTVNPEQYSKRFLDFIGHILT
Method: Dilution series of the compounds were prepared in DMSO at 100 times the final assay concentration (n1=n0/3 in 10 points). The compounds were further diluted to three times the assay concentration in assay buffer (20 mM MOPS pH 7.2, 25 mM magnesium chloride, 0.005% Tween 20). 6 μL of the diluted compounds were added to a 384 well assay plate followed by 9 μL of a mix consisting of 4 nM PIP4K2A (full length protein, SignalChem) and 100 μM PI(5)P diC8 (Tebu-Bio). Enzyme and compounds were pre-incubated at room temperature for 15 min.
Then 3 μL of a solution containing 60 μM ATP (Promega) in assay buffer was added to the wells containing compound and enzyme and mixing was performed by pipetting several times. The reaction was incubated at room temperature for 1 h. Then 18 μL of ADP-Glo™ Reagent (Promega) was added to stop the kinase reaction and deplete the unconsumed ATP, mixing was performed by pipetting several times. The plate was incubated at room temperature for 40 min before addition of 36 μL of Kinase Detection Reagent (Promega) to convert ADP to ATP and introduce luciferase and luciferin to detect ATP. The reaction was incubated at room temperature for 40 min before the luminescence was measured in a in a Victor 3V 1420 multilabel counter (Perkin Elmer).
Percent inhibition of the compounds as compared to dimethyl sulfoxide treated control samples was calculated. Compound concentration versus percent inhibition were fitted to generate IC50 values.

| IC50 (GST tagged PIP4KtypeIIB) [µM] | IC50 [1] [µM] | Compound |
| --- | --- | --- |
| 0.001 to 0.01 | 0.1 to 1 | CC(C)n1cnnc1-c1ccc(-c2cc(-c3ccnc4c3cc3n4CCN(CC4CC4)C3=O)cnc2N)cc1 [Example 374, 4-(6-amino-5-(4-(4-isopropyl-4H-1,2,4-triazol-3-yl)phenyl)pyridin-3-yl)-7-(cyclopropylmethyl)-8,9-dihydropyrido[3′,2′:4,5]pyrrolo[1,2-a]pyrazin-6(7H)-one] |
| 0.1 to 1 | 0.1 to 1 | CN1CCn2c(cc3c(-c4cncc(-c5ccc(C(=O)N6CCC(C)(C)CC6)cc5)c4)ccnc32)C1=O [Example 335, 4-(5-(4-(4,4-dimethylpiperidine-1-carbonyl)phenyl)pyridin-3-yl)-7-methyl-8,9-dihydropyrido[3′,2′:4,5]pyrrolo[1,2-a]pyrazin-6(7H)-one] |
| 0.001 to 0.01 | 0.1 to 1 | CCn1cnnc1-c1ccc(-c2cncc(-c3ccnc4c3cc3n4CCN(C)C3=O)c2)cc1 [Example 358, 4-(5-(4-(4-ethyl-4H-1,2,4-triazol-3-yl)phenyl)pyridin-3-yl)-7-methyl-8,9-dihydropyrido[3′,2′:4,5]pyrrolo[1,2-a]pyrazin-6(7H)-one] |
| 0.1 to 1 | 0.1 to 1 | CN1CCn2c(cc3c(-c4cncc(-c5ccc(C(=O)N6CC(C)(C)C6)cc5)c4)ccnc32)C1=O [Example 381, 4-(5-(4-(3,3-dimethylazetidine-1-carbonyl)phenyl)pyridin-3-yl)-7-methyl-8,9-dihydropyrido[3′,2′:4,5]pyrrolo[1,2-a]pyrazin-6(7H)-one] |
| 0.001 to 0.01 | 0.005 to 0.1 | Cc1ccnnc1-c1ccc(-c2cncc(-c3ccnc4c3cc3n4CCN(C)C3=O)c2)cc1 [Example 370, 7-methyl-4-(5-(4-(4-methylpyridazin-3-yl)phenyl)pyridin-3-yl)-8,9-dihydropyrido[3′,2′:4,5]pyrrolo[1,2-a]pyrazin-6(7H)-one] |
| 0.01 to 0.1 | 2.5 to 5 | O=C(Nc1cccnc1)c1cc2c(-c3cncc(-c4ccc(N5CCCC5=O)cc4)c3)ccnc2[nH]1 [Example 328, 4-(5-(4-(2-oxopyrrolidin-1-yl)phenyl)pyridin-3-yl)-N-(pyridin-3-yl)-1H-pyrrolo[2,3-b]pyridine-2-carboxamide] |
| 0.1 to 1 | < 5 | Cn1c(CNC(=O)c2cc3c(-c4cncc(-c5ccc(N6CCCC6=O)cc5)c4)ccnc3[nH]2)nc2ccccc21 [Example 321, N-((1-methyl-1H-benzo[d]imidazol-2-yl)methyl)-4-(5-(4-(2-oxopyrrolidin-1-yl)phenyl)pyridin-3-yl)-1H-pyrrolo[2,3-b]pyridine-2-carboxamide] |
| 0.01 to 0.1 | 0.1 to 1 | CC(C)n1cnnc1-c1ccc(-c2cncc(-c3ccnc4[nH]c(C(=O)NCc5cccnc5)cc34)c2)cc1 [Example 378, 4-(5-(4-(4-isopropyl-4H-1,2,4-triazol-3-yl)phenyl)pyridin-3-yl)-N-(pyridin-3-ylmethyl)-1H-pyrrolo[2,3-b]pyridine-2-carboxamide] |
| 0.1 to 1 | 1 to 2.5 | CN1CCn2c(cc3c(-c4cncc(-c5ccc(N6CC(C)(C)CCC6=O)cc5)c4)ccnc32)C1=O [Example 326, 4-(5-(4-(5,5-dimethyl-2-oxopiperidin-1-yl)phenyl)pyridin-3-yl)-7-methyl-8,9-dihydropyrido[3′,2′:4,5]pyrrolo[1,2-a]pyrazin-6(7H)-one] |
| > 5 | < 5 | O=C1CCCN1c1ccc(-c2cncc(-c3ccnc4nncn34)c2)cc1 [Example 340, 1-(4-(5-([1,2,4]triazolo[4,3-a]pyrimidin-5-yl)pyridin-3-yl)phenyl)pyrrolidin-2-one] |
| 0.1 to 1 | 1 to 2.5 | Cc1ccc2nc(CNC(=O)c3cc4c(-c5cncc(-c6ccc(N7CCCC7=O)cc6)c5)ccnc4[nH]3)[nH]c2c1 [Example 320, N-((6-methyl-1H-benzo[d]imidazol-2-yl)methyl)-4-(5-(4-(2-oxopyrrolidin-1-yl)phenyl)pyridin-3-yl)-1H-pyrrolo[2,3-b]pyridine-2-carboxamide] |
| 0.1 to 1 | 0.1 to 1 | Cc1ccc2c(c1)OCCN2C(=O)c1cc2c(-c3cncc(-c4ccc(N5CCCC5=O)cc4)c3)ccnc2[nH]1 [Example 339, 1-(4-(5-(2-(7-methyl-3,4-dihydro-2H-benzo[b][1,4]oxazine-4-carbonyl)-1H-pyrrolo[2,3-b]pyridin-4-yl)pyridin-3-yl)phenyl)pyrrolidin-2-one] |
| 0.1 to 1 | 0.1 to 1 | CN1CCn2c(cc3c(-c4cncc(-c5ccc(C(=O)N6C7CCC6CC7)cc5)c4)ccnc32)C1=O [Example 382, 4-(5-(4-(7-azabicyclo[2.2.1]heptane-7-carbonyl)phenyl)pyridin-3-yl)-7-methyl-8,9-dihydropyrido[3′,2′:4,5]pyrrolo[1,2-a]pyrazin-6(7H)-one] |
| 1 to 2.5 | < 5 | CC(C)n1ccnc1-c1ccc(-c2cncc(-c3ccnc4c3cc3n4CCN(C)C3=O)c2)cc1 [Example 364, 4-(5-(4-(1-isopropyl-1H-imidazol-2-yl)phenyl)pyridin-3-yl)-7-methyl-8,9-dihydropyrido[3′,2′:4,5]pyrrolo[1,2-a]pyrazin-6(7H)-one] |
| 0.01 to 0.1 | 0.1 to 1 | Cc1cc(N2CCn3c(cc4c(-c5cncc(-c6ccc(N7CCCC7=O)cc6)c5)ccnc43)C2=O)nn1C [Example 331, 7-(1,5-dimethyl-1H-pyrazol-3-yl)-4-(5-(4-(2-oxopyrrolidin-1-yl)phenyl)pyridin-3-yl)-8,9-dihydropyrido[3′,2′:4,5]pyrrolo[1,2-a]pyrazin-6(7H)-one] |
